Results on five substances are retold here after US7399479B2, “Microemulsions, especially for skin or hair treatment” (Wella AG, priority 2004, dated 2008).

This data set relates to human keratinocyte cell line HaCaT. Kind of data set: Neutral Red Uptake (NRU) cytotoxicity test with HaCaT cells. The data set is classed as cell-based.

Source text: NRU50 values are the NRU values used in the present invention. They characterize the concentration of a substance or composition, at which the up-take of the dye neutral red is reduced to about 50% in human keratinocyte cells. Neutral red (3-amino-7-dimethylamino-2-methyl phenazine hydrochloride) is a weak cationic dye, which easily diffuses from an outer medium through a cell membrane separating individual cells into the cell interior. Changes in the cell surface or the cell membrane by potentially harmful substances reduce the dye uptake and the retention of the dye in the cell. A high NRU50 value means a slight cell-damaging action and low cytotoxicity and is a hint of an improved eye compatibility of the tested substance or composition.
The neutral red (3-amino-7-dimethylamino-2-methyl phenazine hydrochloride) taken up by the cells exposed to the test substance is extracted and measured spectrophotometrically at 540 nm. Toxicological effects cause a reduction in the amount of taken-up neutral red in comparison to separate untreated control cells. The concentration of the test substance, which leads to a reduction of the up-taken and bound neutral red amount of about 50% in comparison to the control cells, is the NRU50-value.
The HaCaT cells are grown in Dulbecco's modified Eagle's medium with 2 mM L-glutamin, 10% (v/v) foetal calf serum (FCS), 100 IU penicillin and 100 μg/ml streptomycin added in an atmosphere having 95% humidity and 5% CO2.
In pretests an approximate NRU50 value is determined with 8 different concentrations of the test substance. On this basis eight suitable concentrations around these approximate values are selected for the final measurements. The measurement is repeated with an independent batch with equal concentrations. Sodium lauryl sulfate with concentrations of 50, 25, 10 and 1 μg/ml is used as reference substance.
Approximately 2*10^4 HaCaT cells in 250 μl growth medium per receptacle are placed in 60 central receptacles of microtiter plates each with 96 receptacles. The corner receptacles act as controls and contain only the growth medium. The plates are incubated for 24 hours at 37° C. in a moist atmosphere with 5% CO2 and 95% air. The culture medium is removed and either replaced by pure treatment medium or by treatment medium containing the various concentration of the test substance to be tested or the reference substance.
After an acting time of 24 hours the treatment medium is replaced by storage medium, which contains 50 μg/ml of neutral red. The plates are placed again in the incubator for three hours. After that the medium is removed, the cells washed with a fixative (1% formaldehyde, 1% calcium chloride) and 100 μl of an extraction solution (1% acetic acid in 50% ethanol) is added to each receptacle for dye extraction. After 20 minutes the absorption is measured at 540 nm with a microplate reader. Concentration/effectiveness diagrams are drawn or plotted, expressed as percent viability of the negative control cells (CC) relative to the respective test concentrations from the average values and after correction with the null value from the BC receptacles.

Turning to Ceteareth-20 [EUMULGIN® B2], the NRU worked out at 5.8 µg/mL.

On to Oleth-5 [EUMULGIN® 05], for which the NRU came to 7.8 µg/mL. As to Oleth-20 [VOLPO® N20], the NRU was 6.2 µg/mL. In the case of “PEG-40 Hydrogenated Castor Oil [CREMOPHOR® RH 410]”, the NRU50 amounted to 188 µg/mL. “PEG-60 Hydrogenated Castor Oil [CREMOPHOR® CO60]” yielded an NRU50 of 203 µg/mL.
